# Experimental data: PMC12062478, “Screening herbal and natural product libraries to aid discovery of novel allosteric modulators of human P2X7” (Purinergic Signalling, 2024)
# Where “and” joins values, the source holds several entries; their conditions need not be identical. Equal values may be shown once. Numbered stars: 1 amine (or outer) side, 2 acyl side, 3 side chain; on linkers, the order of the positions; unused ones are H or OH. Bridge positions count the residues as written; N and C are the ends. Square brackets hold non-standard residues; d marks the D form. Peptide text beside a SMILES is read from it. I, II: the chains in the order shown. Actinocin(9to1) = Cc1c2oc3c(C)ccc(C(=O)[*:1])c3nc-2c(C(=O)[*:2])c(N)c1=O; dHica = CC(C)C[C@@H](O)C(=O)O; NMeV = CN[C@H](C(=O)O)C(C)C; NMeA = CN[C@@H](C)C(=O)O; βAla = NCCC(=O)O; Sar = CNCC(=O)O
# Molecular target: T1, P2X7 (Homo sapiens, UniProt Q99572)
# T1 construct: expressed in transfected cells
# T1 sequence (Q99572 1-595): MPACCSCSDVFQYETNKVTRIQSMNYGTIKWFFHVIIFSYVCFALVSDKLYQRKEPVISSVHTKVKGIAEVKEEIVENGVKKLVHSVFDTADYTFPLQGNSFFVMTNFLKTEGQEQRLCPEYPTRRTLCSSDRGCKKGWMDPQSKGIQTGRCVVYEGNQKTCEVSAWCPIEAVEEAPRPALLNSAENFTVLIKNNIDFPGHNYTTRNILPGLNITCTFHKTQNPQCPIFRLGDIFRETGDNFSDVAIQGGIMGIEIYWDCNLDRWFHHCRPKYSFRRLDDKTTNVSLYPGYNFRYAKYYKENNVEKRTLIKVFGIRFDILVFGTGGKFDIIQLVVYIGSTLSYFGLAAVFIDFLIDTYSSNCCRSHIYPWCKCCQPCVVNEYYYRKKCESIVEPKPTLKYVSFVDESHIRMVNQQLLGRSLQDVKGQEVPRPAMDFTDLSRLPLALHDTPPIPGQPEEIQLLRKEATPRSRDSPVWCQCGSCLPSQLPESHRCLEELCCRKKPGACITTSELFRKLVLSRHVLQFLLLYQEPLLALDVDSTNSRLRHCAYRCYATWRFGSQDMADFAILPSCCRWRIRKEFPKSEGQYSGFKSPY
# Assay: ATP-induced YO-PRO-1 dye uptake in HEK-hP2X7 cells
# Assay type: cell-based
# Settings: 10 µM, 10 min pre-incubation, ATP 1 mM
# Procedure: HEK-hP2X7 or HEK-hP2X4 cells were plated at 2.5 × 10^4 cells per well (100 µL volume) the day before experiments into poly-D-lysine (Merck Millipore) coated 96-well plates (NUNC, Fisher Scientific #167-008). The membrane impermeant dye YO-PRO-1 iodide (Life Technologies, Fisher Scientific) was used at a final concentration of 2 µM in low divalent buffer (145 mM NaCl, 5 mM KCl, 0.2 mM CaCl2, 13 mM glucose, 10 mM HEPES, pH 7.3, osm 300–310). Media were removed from the plate, and 90 µL of YO-PRO-1 buffer was added per well. Plates were warmed to 37 °C for 5 min before recording. Data was acquired on a Flexstation 3 plate reader (Molecular Devices) using excitation wavelength 490 nm, emission wavelength 520 nm, and six reads per well (PMT medium). […] […] Pipette height was set to 80 µL and the rate of injection was 4.
# YO-PRO-1 dye uptake assay data is plotted as a percentage of control where control responses are measured in the absence of plant extract. Cell viability data is plotted as a percentage of control or background-corrected fluorescence data. Concentration–response graphs were plotted using GraphPad Prism v6 with a non-linear regression fit (variable slope). IC50 values were generated from collated datasets from a minimum of three independent experiments. Statistical differences were determined by one-way ANOVA statistical tests performed using GraphPad Prism v6 with Dunnett’s multiple comparison post hoc test. Significance was taken as P ≤ 0.05.
# We acquired a natural product library (Set IV) containing 419 compounds from NCI DTP and tested these on P2X7 responses using a YO-PRO-1 dye uptake in HEK293 cells stably expressing human P2X7 (HEK-hP2X7). […] This allowed us to assess for any immediate effect of the injected compound, and secondly, it allowed for any potential negative modulators to be pre-incubated with P2X7.
row,Structure (SMILES),Effect on ATP-mediated YO-PRO-1 uptake
1,COc1cc2c(c3c1c(=O)c1ccccc1n3C)C=CC(C)(C)O2 [Acronine],able to reduce ATP-mediated YO-PRO-1 uptake
2,CC1(C)CCC[C@]2(C)C3=C(CC[C@@H]12)C(=O)OC3 [Confertifolin],able to reduce ATP-mediated YO-PRO-1 uptake
3,O=C(O)c1cc(O)c(O)c(OC(=O)c2cc(O)c(O)c(O)c2)c1 [Digallic acid],able to reduce ATP-mediated YO-PRO-1 uptake

# Same assay, conditions: > 30 µM, HEK-hP2X7
row,Structure (SMILES),Effect on YO-PRO-1 uptake at high concentrations
1,COc1c2ccoc2cc2oc(=O)ccc12 [Bergapten],reduction of YO-PRO-1 uptake in hP2X7 cells at high concentrations
2,O=c1c(-c2ccc(O)cc2)coc2cc(O)cc(O)c12 [Genistein],reduction of YO-PRO-1 uptake in hP2X7 cells at high concentrations
3,CCCCCCCCCCCCCCCC(=O)O [Palmitic acid],reduction of YO-PRO-1 uptake in hP2X7 cells at high concentrations

# Same assay, conditions: ATP with vehicle (DMSO), no modulator
row,Structure (SMILES),EC50
1,"Nc1ncnc2c1ncn2[C@@H]1O[C@H](COP(=O)(O)OP(=O)(O)OP(=O)(O)O)[C@@H](O)[C@H]1O [ATP, reference compound]",131 µM and 110 µM

# Same assay, conditions: HEK-hP2X7, 10 min pre-treatment, ATP 1 mM; read-out: IC50 value (95% CI)
row,Structure (SMILES),IC50
1,"O=C1CSC(=O)N1C(CCc1ccncc1)COc1ccc(-c2cccc([N+](=O)[O-])c2)cc1 (stereo not shown) [AZ11645373, reference compound]",0.153 µM
2,"O=c1c(O)c(-c2ccc(O)cc2)oc2cc(O)cc(O)c12 [Kampferol, kaempferol]",40 µM

# Same assay, conditions: HEK-hP2X7, NCI Natural Product Set IV compounds, Fig. 1F; read-out: IC50 (dose inhibition experiments)
row,Structure (SMILES),IC50
1,CC1(C)CCC[C@]2(C)C3=C(CC[C@@H]12)C(=O)OC3 [Confertifolin],3.86 µM
2,O=C(O)c1cc(O)c(O)c(OC(=O)c2cc(O)c(O)c(O)c2)c1 [Digallic acid],4.05 µM

# Same assay, conditions: IC50 value (95% CI)
row,Structure (SMILES),IC50
1,"O=C(O[C@@H]1Cc2c(O)cc(O)cc2O[C@@H]1c1ccc(O)c(O)c1)c1cc(O)c(O)c(O)c1 [ECG, epicatechin gallate]",4.96 µM
2,O=c1c(-c2ccc(O)cc2)coc2cc(O)cc(O)c12 [Genistein],49.7 µM

# Same assay, conditions: compound 10 µM
row,Structure (SMILES),Mechanism of action from ATP concentration–response curve
1,CC1(C)CCC[C@]2(C)C3=C(CC[C@@H]12)C(=O)OC3 [Confertifolin],potential non-competitive mechanism of action
2,O=C(O)c1cc(O)c(O)c(OC(=O)c2cc(O)c(O)c(O)c2)c1 [Digallic acid],potential non-competitive mechanism of action

# Same assay, conditions: screen for PAM activity; compound 10 µM injected 60 s before ATP
row,Structure (SMILES),P2X7 response (% of control)
1,"Nc1nc(=O)c2c([nH]1)NCC(CNc1ccc(C(=O)N[C@@H](CCC(=O)O)C(=O)O)cc1)N2C=O (mixture of isomers) [Folinic acid, reference compound]",160.00 % of control
2,"Cc1c2oc3c(C)ccc(C(=O)N[C@@H]4C(=O)N[C@H](C(C)C)C(=O)N5CCC[C@H]5C(=O)N(C)CC(=O)N(C)[C@@H](C(C)C)C(=O)O[C@@H]4C)c3nc-2c(C(=O)N[C@@H]2C(=O)N[C@H](C(C)C)C(=O)N3CCC[C@H]3C(=O)N(C)CC(=O)N(C)[C@@H](C(C)C)C(=O)O[C@@H]2C)c(N)c1=O [Actinomycin] (I: T[dV]P[Sar][NMeV] / II: T[dV]P[Sar][NMeV]; ester I:1-I:C, II:1-II:C; linker I:N-II:N via Actinocin(9to1))",188.44 % of control
3,CC(=O)O[C@H]1C(=O)[C@@]2(C)[C@H]([C@H](OC(=O)c3ccccc3)[C@]3(O)C[C@H](O)C(C)=C1C3(C)C)[C@]1(OC(C)=O)CO[C@@H]1C[C@@H]2O [Baccatin III],136.25 % of control
4,CC[C@H](C)C(=O)O[C@H]1CCC=C2C=C[C@H](C)[C@H](CC[C@@H](O)C[C@@H](O)CC(=O)O)[C@H]21 [Compactin],139.71 % of control
5,C/C=C/C(=O)O [Crotonic acid],142.15 % of control
6,COc1cc(/C=C/C(=O)CC(=O)/C=C/c2ccc(O)c(OC)c2)ccc1O [Curcumin],144.58 % of control
7,CC(=O)OC(C)C1C2=C(C(=O)C[C@]1(C)O)C(=O)c1c(ccc(-c3ccc4c(c3O)C(=O)C3=C(C4=O)C(C(C)OC(C)=O)[C@@](C)(O)CC3=O)c1O)C2=O (stereo partly shown) [Julimycin II],180.28 % of control
8,CCCCC[C@@H](O)[C@H]1C(=O)O[C@H](C)[C@@H](O)/C=C/C=C/C=C/C=C/C=C(\C)[C@@H](O)[C@H](O)[C@H](O)C[C@H](O)C[C@H](O)C[C@H](O)C[C@H](O)C[C@@H]1O [Lagosin],148.84 % of control
9,CC(=O)CCC(=O)O [Levullinic acid],134.82 % of control
10,Nc1ncnc2c1ncn2C1OCC(O)C1O (stereo not shown) [MLS003170979],129.73 % of control
11,COc1c(OC)c2c3c(nccc3c1OC)C(=O)c1cc(O)ccc1-2 [NSC785143],149.00 % of control
12,c1cc2c(c3c1C[C@@H]1NCCc4cc5c(c-3c41)OCO5)OCO2 [NSC785157],152.97 % of control
13,COc1cc2c3c(c1O)-c1cc(O)ccc1C[C@H]3N(C)CC2 [NSC785167],125.18 % of control
14,COc1cc2c3c(c1O)Oc1ccc(cc1)C[C@@H]1c4c(cc(OC)c(OC)c4Oc4ccc(cc4)C[C@@H]3N(C)CC2)CCN1C [NSC785173],148.84 % of control
15,COc1cc2c3c(c1O)-c1cc(N(Cc4ccccc4)Cc4ccccc4)ccc1CC3N(C)CC2 (stereo not shown) [NSC785176],159.37 % of control
16,COc1cc2c3c(c1O)-c1cc(O)ccc1CC3N(C)CC2 (stereo not shown) [NSC785186],146.91 % of control
17,COc1ccc2c(c1OC)-c1c(OC)c(OC)cc3c1[C@H](C2)NCC3 [NSC785187],127.21 % of control
18,COC1C(C)OC(OC2CC(C)(O)Cc3cc4c(c(O)c32)C(=O)c2c(O)cc3c(c2C4=O)OC2OC3(C)C(O)C(N(C)C)C2O)C(OC)C1(C)OC (stereo not shown) [Nogamycin],155.77 % of control
19,"CC(=O)CCCCn1c(=O)c2c(ncn2C)n(C)c1=O [Pentoxifylline, reference compound]",140.48 % of control
20,CC(C)=CCC[C@@H](C)C1=C(O)C(=O)C(C)=CC1=O [Perezone],148.44 % of control
21,COc1cc([C@@H]2c3cc4c(cc3[C@H](O)[C@H]3COC(=O)[C@@H]23)OCO4)cc(OC)c1OC [Picropodophyllin],145.86 % of control

# Same assay, conditions: screen for potential negative allosteric modulators; compound 10 µM injected 60 s before ATP
row,Structure (SMILES),P2X7 response (% of control)
1,COc1cc(Cc2nccc3cc(OC)c(OC)cc23)c(C(C)=O)cc1OC [Acetopapaverine],34.92 % of control
2,COc1cc2c(c3c1c(=O)c1ccccc1n3C)C=CC(C)(C)O2 [Acronine],1.05 % of control
3,COc1cc([C@@H]2c3cc4c(cc3C[C@H]3COC(=O)[C@@H]32)OCO4)cc(OC)c1OC [Anthricin],30.94 % of control
4,NC(=O)C#CC(N)=O [Aquamycin],15.18 % of control
5,C[C@@H]1C[C@H](C)C[C@H](C)[C@@H](O)CC(=O)O[C@H]([C@@H]2CCC[C@H]2C(=O)O)C/C=C/C=C(/C#N)[C@H](O)[C@@H](C)C1 [Borrelidin],42.93 % of control
6,C[C@H]1Oc2cc3c(-c4c(O)cc(O)c5c(O)c6c(cc45)O[C@H](C)[C@@H](C)C6=O)c(O)cc(O)c3c(O)c2C(=O)[C@@H]1C [Chaetochromin A],12.08 % of control
7,CC1(C)CCC[C@]2(C)C3=C(CC[C@@H]12)C(=O)OC3 [Confertifolin],9.72 % of control
8,CC[C@H](C)[C@@H]1NC(=O)[C@@H]2CCCN2C(=O)[C@@H](CC(C)C)OC(=O)CCNC(=O)[C@H](C)N(C)C(=O)[C@H](C(C)C)N(C)C1=O [Destrusin B] (cyclo([dHica]PI[NMeV][NMeA][βAla])),46.65 % of control
9,O=C(O)c1cc(O)c(O)c(OC(=O)c2cc(O)c(O)c(O)c2)c1 [Digallic acid],0 % of control
10,COc1ccc2c(c1OC)CN1CCc3cc4c(cc3[C@@H]1C2)OCO4 [Hydroberberine],9.75 % of control
11,CCCn1cc2c3c(cccc31)[C@H]1C[C@@H](C)CN(C)[C@@H]1C2.O=C(O)C(O)C(O)C(=O)O [NSC332294],29.09 % of control
12,COc1cc2c(cc1O)C[C@H]1c3c(cc(OC)c(O)c3-2)CCN1C [NSC785158],49.59 % of control
13,CC(=O)O[C@H]1C[C@]2(O)[C@@H]3CC[C@@H]4C[C@@H](O)CC[C@]4(C)[C@H]3CC[C@]2(C)[C@H]1C1=CC(=O)OC1 [Oleandrogenin],42.33 % of control
